Measurements as given in the supplement of paper PMC10883282.
± gives the standard deviation of the averaged measurements.

System: SW1353
Assay: relative viability vs DMSO control (72 h) (fraction); higher = more viable cells
Method in brief: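 Densities for seeding sarcoma cell lines into 384-well plates were set to give 80–90% confluence. After 24 h, 2.5 µl of serially diluted compound from source plates of 10 mM to 0.0002 mM went in, and plates stayed 72 h at 37 °C in 5% CO2 with 0.1% DMSO vehicle and a 5 µM positive control. Percent growth from ATPLite readings, averaged over up to triplicate wells, served as relative viability, rescaled so 1 means full and 0 means none.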

| Compound | relative viability (0.00017 µM) | relative viability (0.00051 µM) | relative viability (0.00152 µM) | relative viability (0.00457 µM) | relative viability (0.01372 µM) | relative viability (0.04115 µM) | relative viability (0.1235 µM) | relative viability (0.3704 µM) | relative viability (1.111 µM) | relative viability (3.333 µM) | relative viability (10 µM) |
| --- | --- | --- | --- | --- | --- | --- | --- | --- | --- | --- | --- |
| COc1cc2/c(=N/c3ccc(Br)cc3F)nc[nH]c2cc1OCC1CCN(C)CC1 [Vandetanib] | 0.952 ± 0.029 | 0.962 ± 0.017 | 0.941 ± 0.04 | 0.988 ± 0.018 | 0.976 ± 0.029 | 0.952 ± 0.032 | 0.957 ± 0.045 | 0.9245 ± 0.0051 | 0.92 ± 0.013 | 0.558 ± 0.019 | 0.0143 ± 0.0022 |
| CCc1cc2c(cc1N1CCC(N3CCOCC3)CC1)C(C)(C)c1[nH]c3cc(C#N)ccc3c1C2=O [Alectinib] | 0.987 ± 0.02 | 0.993 ± 0.027 | 1.01 ± 0.019 | 1.002 ± 0.0077 | 0.996 ± 0.038 | 1.04 ± 0.012 | 0.988 ± 0.057 | 1.07 ± 0.032 | 0.9953 ± 0.0051 | 1.06 ± 0.058 | 1.14 ± 0.016 |
| Cc1nc(-c2cn3c(n2)-c2ccc(-c4cnn(C(C)(C)C(N)=O)c4)cc2OCC3)n(C(C)C)n1 [Taselisib] | 0.925 ± 0.035 | 0.933 ± 0.02 | 0.953 ± 0.025 | 0.971 ± 0.013 | 0.884 ± 0.043 | 0.856 ± 0.031 | 0.785 ± 0.03 | 0.762 ± 0.014 | 0.69 ± 0.021 | 0.599 ± 0.021 | 0.469 ± 0.0077 |
| O=C(Cc1ccc(-c2ccc(OCCN3CCOCC3)cc2)cn1)NCc1ccccc1 [KX2-391] | 1.06 ± 0.023 | 1.09 ± 0.031 | 1.02 ± 0.014 | 1.01 ± 0.035 | 0.962 ± 0.01 | 0.952 ± 0.011 | 0.607 ± 0.037 | 0.446 ± 0.024 | 0.425 ± 0.018 | 0.462 ± 0.014 | 0.458 ± 0.019 |
